US20240382484A1, “COMPOSITION FOR TREATING, PREVENTING, OR AMELIORATING MELANOMA AND METHOD THEREOF” (Thomas Jefferson University, priority 2021, published 2024)

Tests used:
WM1361A and WM1366 cells = assay: Reverse-phase protein array and immunoblot analysis; type: cell-based, human; details: immunoblot, 24 hours
Protocol: FIG. 15A: Reverse-phase protein array analysis of WM1361A and WM1366 cells. The cells were treated with vehicle (DMSO), either pharmacologic inhibition or genetic depletion of PDPK1 only, MEK inhibitor only and the combinations as indicated. All samples were harvested in three biological independent experiments. Proteins levels were normalized to the mean. Antibodies were limited to those that were differentially expressed (BHFDR <0.05) in at least three of the four comparisons between combination and control samples. FIG. 15B: WM1361A and WM1366 cells were treated with PD0325901 and GSK2334470 as indicated for 24 hours. Cell lysates were applied to immunoblot with indicated antibodies. FIG. 15C: WM1361A and WM1366 parental clones (iCas9) and PDPK1-depleted clones by two individual sgRNAs (KO1 and K02) treated with trametinib as indicated for 24 hours. Cell lysates were applied to immunoblot with indicated antibodies.
WM1361A and WM1366 cells were treated with vehicle control, PDPK1i (GSK2334470), MEKi (trametinib) or combined PDPK1i and MEKi for 48 hours. WM1361A and WM1366 cells were also transfected with ON-target control siRNAs or PDPK1 siRNAs, and then treated with or without trametinib for further 48 hours. Cells were harvested, lysed and analyzed as described in Tibes et al. (Mol Cancer Ther 5, 2512-2521, 2006). […]

[1] = tested on: human NRAS mutant melanoma cell lines; assay: 72 hours drug combination, cell density by IncuCyte, synergy by Combenefit with Loewe method; type: cell-based; details: WM1361A, WM1366, SK-MEL-30 and SK-MEL-173, 72 hours
Protocol: FIG. 2A: NRAS mutant melanoma cell line WM1361A, WM1366, SK-MEL-30, SK-MEL-173, 1007 and 1014 were treated for 72 hours as indicated with GSK2334470 and trametinib and analyzed for cell density by IncuCyte. Synergy graphs were generated utilizing Combenefit Software with Loewe method. Data are represented as the mean from three biological independent experiments. FIG. 2B: WM1361A, WM1366, SK-MEL-30 or SK-MEL-173 cells were treated with GSK2334470 (PDPK1i) and trametinib (tram) alone or in combination (comb) at the indicated concentrations for 7 days. Cell growth was monitored by IncuCyte every 2 hours. Media were replaced twice with drugs during culture. Data are represented as the mean±SEM of three biological independent experiments. p values were calculated with an unpaired two-tailed t test. n.s., not significant.
FIG. 10A-10B: Cas9 expressed clone WM1361A-iCas9 #1 (FIG. 10A), and WM1366-iCas9 #11 (FIG. 10B) cells were treated for 72 hours as indicated with GSK2334470 and trametinib and analyzed for cell density by IncuCyte. Synergy graphs were generated utilizing Combenefit Software with Loewe method. Data are represented as the mean from three biological independent experiments.
FIG. 11A: WM1361A, WM1366, SK-MEL-30 and SK-MEL-173 cells were treated for 72 hours as indicated with GSK2334470 and PD0325901 and analyzed for cell density by IncuCyte. Synergy graphs were generated utilizing Combenefit Software with Loewe method. Data are represented as the mean from three biological independent experiments. FIG. 11B: WM1361A, WM1366, SK-MEL-30 or SK-MEL-173 cells were treated with GSK2334470 (PDPK1i) and PD0325901 (PD901) alone or in combination (Comb) at the indicated concentrations for 7 days. Cell growth was monitored by IncuCyte every 2 hours. Data are represented as the mean±SEM of three biological independent experiments. p values were calculated with an unpaired two-tailed t test. n.s., not significant.
FIG. 16A: WM1361A and WM1366 cells were treated for 72 hours with indicated inhibitors and analyzed for cell density by IncuCyte. Synergy graphs were generated utilizing Combenefit Software with Loewe method. Data are represented as the mean from three biological independent experiments.
To further analyze synergistic effects, the growth response of a panel of several NRAS mutant cells to titrated PDPK1i (GSK2334470) and MEKi (trametinib) combinations was assessed.
Human WM1361A and WM1366 melanoma cell lines were cultured in MCDB153 (Sigma) with 2% FBS, 20% Leibowitz L-15 medium, and 5 μg/mL insulin (WM medium). Human SK-MEL-30 and SK-MEL-173 melanoma cell lines were cultured in RPMI-1640 with 10% FBS. […] All cells were cultured at 37° C. in a humidified atmosphere containing 5% CO2. […] Cell lines were STR analyzed, confirmed for NRAS/Nras mutation, and tested to be mycoplasma-free during experiments. For cell proliferation and drug response, cells were monitored by IncuCyte® (Essen Bioscience, Ann Arbor, MI) every 2 hours.

1014 tumors = assay: Flow cytometry of tumor-infiltrating immune cells from 1014 tumors; type: in vivo, mouse; details: day 7 post treatment, over the control group
SK-MEL-30 xenografts = assay: SK-MEL-30 xenograft model in Nu/J mice; type: in vivo, mouse; details: trametinib chow and/or GSK2334470 100 mg/kg intraperitoneally every 3 days
Protocol: FIG. 4A-4B, In Nu/J mice, SK-MEL-30 tumor growth (FIG. 4A) represented as the change in volume (mm^3) over time and Kaplan-Meier survival curves (FIG. 4B) were shown from the start of treatment as indicated. Ctrl: control chow+mock injection (n=7), Tram: trametinib chow+mock injection (n=7), G4470: control chow+GSK2334470 injection (n=5), Comb: trametinib chow+GSK2334470 injection (n=7). Mice were injected and tumor volume was monitored every 3 days. Data are represented as the mean±SEM. The dotted line at 1000 mm^3 marks the experimental endpoint. p values were calculated by GraphPad Prism 9.0 with Log-rank (Mantel-Cox) test. n.s., not significant. […]
FIGS. 14A-14B: Sex disparities in SK-MEL-30 xenografts, in accordance with some embodiments. […] Mice were injected and tumor volume was monitored every 3 days. […] The dotted line at 1000 mm^3 marks the experimental endpoint. p values were calculated by GraphPad Prism 9.0 with Log-rank (Mantel-Cox) test. n.s., not significant.
Animal experiments were performed at Thomas Jefferson University in a facility accredited by the Association for the Assessment and Accreditation of Laboratory Animal Care and were approved by the Institutional Animal Care and Use Committee (protocol #1052). […] Mouse weights were monitored once a week or three times per week during drug treatment. […]

SMILES | p-S6, second MEKi with PDPK1i or sgRNA PDPK1 depletion (WM1361A and WM1366 cells) | synergistic inhibition of PDPK1i (GSK2334470) with PD0325901 [1] | frequency of CD8+ T cells within the CD45+ cell compartment (1014 tumors) | tumor growth (SK-MEL-30 xenografts)
O=C(NOC[C@H](O)CO)c1ccc(F)c(F)c1Nc1ccc(I)cc1F [PD0325901, (R)—N-(2,3-dihydroxypropoxy)-3,4-difluoro-2-((2-fluoro-4-iodophenyl)amino)benzamide] | enhanced reduction | broad synergistic effects | – | –
CC(=O)Nc1cccc(-n2c(=O)n(C3CC3)c(=O)c3c(Nc4ccc(I)cc4F)n(C)c(=O)c(C)c32)c1 [trametinib, N-(3-(3-cyclopropyl-5-((2-fluoro-4-iodophenyl)amino)-6,8-dimethyl-2,4,7-trioxo-3,4,6,7-tetrahydropyrido[4,3-d]pyrimidin-1(2H)-yl)phenyl)acetamide] | – | – | intermediate effect | suppressed tumor growth modestly
